Broadly, the pIC50 is the negative decadic logarithm of the IC50, by convention in mol/L. Usually IC90 stands for the concentration at which the effect reaches the 90% level.

pIC50: −log10 of the molar value.

The subject of this assay is Plasmodium berghei. The experiment in a line: Luciferase/luciferin-expressing antifolate-resistant parasites were used to infect a culture of HepG2 cells that were pre-incubated with compounds. Infected hepatocytes emit light due to the luciferase reaction. Assay results are presented as the percent inhibition of light emission compared to control. […]. Format: functional. Conditions: sporozoite; for IC90: read-out: LUCIFERASE INFECTION ASSAY - IC90.

As for `O=C1c2n[nH]c(-c3ccccc3O)c2C(c2ccccc2F)N1Cc1ccco1` (centres undefined), the IC90 was greater than 8.47 µM. Also, where the note is “FFLUC_HILL_SLOPE 2.17, FFLUC_R_SQUARED 0.481, read-out: LUCIFERASE INFECTION ASSAY - IC50”, the pIC50 is less than 5.07.
For `COc1ccccc1-n1nnnc1SCC(O)Cn1c2ccccc2c2ccccc21` (centres undefined), the IC90 was greater than 10 µM. The pIC50 (FFLUC_HILL_SLOPE 2.23, FFLUC_R_SQUARED 0.596, PBLUC_HILL_SLOPE 13.3, PBLUC_R_SQUARED 0.223, read-out: LUCIFERASE INFECTION ASSAY - IC50) is 5.00.
`Cc1ccc2c(c1)NC(C)c1ccccc1O2` (centres undefined): the IC90 is greater than 10 µM. Also, where the note is “FFLUC_HILL_SLOPE 2.08, FFLUC_R_SQUARED 0.224, HEPG2TOX_HILL_SLOPE 6.95, HEPG2TOX_R_SQUARED 0.413, PBLUC_HILL_SLOPE 13.7, PBLUC_R_SQUARED 0.727, read-out: LUCIFERASE INFECTION ASSAY - IC50”, the pIC50 is 5.05.
Regarding `Cc1[nH]c2ccccc2c1C1=NNC(=NCc2ccc3c(c2)OCO3)SC1`, the IC90 is greater than 10 µM. For the setting “FFLUC_HILL_SLOPE 2.18, FFLUC_R_SQUARED 0.288, PBLUC_HILL_SLOPE 2.54, PBLUC_R_SQUARED 0.596, read-out: LUCIFERASE INFECTION ASSAY - IC50”, the pIC50 was 5.34.
For the compound `Cc1cc(C(=O)C(C)OC(=O)c2ccc(NS(=O)(=O)c3ccc4c(c3)OCCO4)cc2)c(C)n1-c1ccc(Cl)cc1` (centres undefined), the IC90 was greater than 10 µM. Moreover, the pIC50 (FFLUC_HILL_SLOPE 2.2, FFLUC_R_SQUARED 0.531, HEPG2TOX_HILL_SLOPE 0.947, HEPG2TOX_R_SQUARED 0.641, PBLUC_HILL_SLOPE 4.36, PBLUC_R_SQUARED 0.544, read-out: LUCIFERASE INFECTION ASSAY - IC50) is 5.18.
In the case of `O=C(Nc1cc(S(=O)(=O)c2ccccc2)cs1)c1cccc(Cl)c1`, the IC90 was greater than 8.73 µM. Also, under “FFLUC_HILL_SLOPE 2.16, FFLUC_R_SQUARED 0.469, read-out: LUCIFERASE INFECTION ASSAY - IC50”, the negative-log IC50 (pIC50) was less than 5.06.
Take `O=C(OCc1cc(=O)oc2cc(O)ccc12)c1c2c(nc3ccccc13)/C(=C/c1ccc([N+](=O)[O-])cc1)CCC2`: the 90% effect concentration (IC90) is greater than 10 µM. In addition, the pIC50 (FFLUC_HILL_SLOPE 2.06, FFLUC_R_SQUARED 0.63, PBLUC_HILL_SLOPE 4.67, PBLUC_R_SQUARED 0.673, read-out: LUCIFERASE INFECTION ASSAY - IC50) is 5.11.
As to `CCOc1ccc(NC(=O)c2ccccc2NC(=O)COC(=O)/C(=C/c2cc(OC)c(OC)c(OC)c2)c2ccc(-c3ccccc3)cc2)cc1`, the IC90 is greater than 10 µM. Moreover, the pIC50 (FFLUC_HILL_SLOPE 2.07, FFLUC_R_SQUARED 0.755, PBLUC_HILL_SLOPE 3.07, PBLUC_R_SQUARED 0.285, read-out: LUCIFERASE INFECTION ASSAY - IC50) is 5.21.
Turning to `CCOc1ncccc1C(=O)Nc1cc(S(=O)(=O)N2CCOCC2)ccc1Oc1ccccc1`, the IC90 was greater than 10 µM. Besides, the pIC50 (FFLUC_HILL_SLOPE 2.19, FFLUC_R_SQUARED 0.739, read-out: LUCIFERASE INFECTION ASSAY - IC50) was less than 5.00.
For the compound `CC1=C(C(=O)Nc2cc(C)on2)C(c2csc(-c3ccc(Cl)cc3)n2)NC(=S)N1C1CC1` (centres undefined), the IC90 came to 9.79 µM. Moreover, for the setting “FFLUC_HILL_SLOPE 2.07, FFLUC_R_SQUARED 0.469, PBLUC_HILL_SLOPE 2.7, PBLUC_R_SQUARED 0.533, read-out: LUCIFERASE INFECTION ASSAY - IC50”, the pIC50 was 5.36.
For `CN(C)CCNCCCOc1ccc(C(C)(C)c2ccccc2)cc1`, the IC90 was greater than 10 µM. The pIC50 (FFLUC_HILL_SLOPE 2.11, FFLUC_R_SQUARED 0.273, PBLUC_HILL_SLOPE 1.18, PBLUC_R_SQUARED 0.227, read-out: LUCIFERASE INFECTION ASSAY - IC50) is 5.23.
For the compound `O=C1/C(=C/c2ccc(-n3nncc3C34CC5CC(CC(C5)C3)C4)cc2)CCC/C1=C\c1ccc(-n2nncc2C23CC4CC(CC(C4)C2)C3)cc1`, the IC90 turned out to be 4.22 µM. In addition, the pIC50 (FFLUC_HILL_SLOPE 2.2, FFLUC_R_SQUARED 0.872, HEPG2TOX_HILL_SLOPE 3.7, HEPG2TOX_R_SQUARED 0.967, PBLUC_HILL_SLOPE 5.71, PBLUC_R_SQUARED 0.867, read-out: LUCIFERASE INFECTION ASSAY - IC50) was 5.54.
Consider `COc1ccc2c(CC(=O)N(c3cc(C)cc(C)c3)c3nc(-c4ccc(Br)cc4)cs3)coc2c1`, for which the IC90 was greater than 10 µM. Moreover, the pIC50 (FFLUC_HILL_SLOPE 2.23, FFLUC_R_SQUARED 0.6, read-out: LUCIFERASE INFECTION ASSAY - IC50) was less than 5.00.
For `CCCN(CCC)S(=O)(=O)c1ccc(-n2ncc(Cl)c(Cl)c2=O)cc1`, the IC90 stood at 2.67 µM. The pIC50 (FFLUC_HILL_SLOPE 2.22, FFLUC_R_SQUARED 0.495, HEPG2TOX_HILL_SLOPE 4.03, HEPG2TOX_R_SQUARED 0.969, PBLUC_HILL_SLOPE 5.8, PBLUC_R_SQUARED 0.662, read-out: LUCIFERASE INFECTION ASSAY - IC50) was 5.74.
With `C=CCN(c1ccccc1)S(=O)(=O)c1ccc(Cl)c(C(=O)Nc2ccc(N(c3ccccc3)C(C)C)cc2)c1`, the IC90 was 8.36 µM. Further, the pIC50 (FFLUC_HILL_SLOPE 2.09, FFLUC_R_SQUARED 0.761, HEPG2TOX_HILL_SLOPE 2.29, HEPG2TOX_R_SQUARED 0.839, PBLUC_HILL_SLOPE 16.1, PBLUC_R_SQUARED 0.248, read-out: LUCIFERASE INFECTION ASSAY - IC50) is 5.14.
Take `CCc1c(C(=O)/C=C/c2cccc(C#N)c2)oc2ccccc12`: the IC90 came to 9.02 µM. Further, for the setting “FFLUC_HILL_SLOPE 2.17, FFLUC_R_SQUARED 0.174, HEPG2TOX_HILL_SLOPE 14.7, HEPG2TOX_R_SQUARED 0.793, PBLUC_HILL_SLOPE 2.78, PBLUC_R_SQUARED 0.439, read-out: LUCIFERASE INFECTION ASSAY - IC50”, the pIC50 is 5.39.
For the compound `CC(C)CN1/C(=C\c2cccc3[nH]ccc23)C(=O)c2ccccc2S1(=O)=O`, the IC90 is greater than 8.67 µM. In addition, the pIC50 (FFLUC_HILL_SLOPE 2.19, FFLUC_R_SQUARED 0.818, HEPG2TOX_HILL_SLOPE 2.77, HEPG2TOX_R_SQUARED 0.93, read-out: LUCIFERASE INFECTION ASSAY - IC50) was less than 5.06.
Consider `COc1ccc(-c2nnc(SCn3nnc4ccccc4c3=O)n2-c2ccccc2C(C)C)cc1`, for which the IC90 is greater than 10 µM. Moreover, the pIC50 (FFLUC_HILL_SLOPE 2.15, FFLUC_R_SQUARED 0.39, read-out: LUCIFERASE INFECTION ASSAY - IC50) was less than 5.00.
With `COC(=O)C1=C2N(C)c3ccccc3N2C(Nc2ccc(C)cc2)=NC1C(F)(F)F.Cc1ccc(C)cc1` (centres undefined), the IC90 was greater than 10 µM. The pIC50 (FFLUC_HILL_SLOPE 2.2, FFLUC_R_SQUARED 0.697, HEPG2TOX_HILL_SLOPE 5.36, HEPG2TOX_R_SQUARED 0.5, PBLUC_HILL_SLOPE 4.61, PBLUC_R_SQUARED 0.0573, read-out: LUCIFERASE INFECTION ASSAY - IC50) is 5.13.
As for `Cc1cccc(-c2nn(-c3ccccc3)cc2/C=C2\CCn3c2nc2cc(Cl)ccc2c3=O)c1`, the IC90 was greater than 10 µM. Under “FFLUC_HILL_SLOPE 2.22, FFLUC_R_SQUARED 0.239, read-out: LUCIFERASE INFECTION ASSAY - IC50”, the pIC50 is less than 5.00.
Regarding `Cc1cc(/C=N/Nc2nc3ccccc3[nH]2)c(C)n1-c1ccc(Cl)c(C(F)(F)F)c1`, the IC90 was 4.05 µM. Under “FFLUC_HILL_SLOPE 2.14, FFLUC_R_SQUARED 0.676, PBLUC_HILL_SLOPE 2.82, PBLUC_R_SQUARED 0.68, read-out: LUCIFERASE INFECTION ASSAY - IC50”, the pIC50 was 5.73.
Turning to `Fc1ccc(CNc2n[nH]c(=S)s2)cc1`, the IC90 is greater than 13.7 µM. Also, for the setting “FFLUC_HILL_SLOPE 2.08, FFLUC_R_SQUARED 0.432, read-out: LUCIFERASE INFECTION ASSAY - IC50”, the pIC50 was less than 4.86.
Turning to `O=C(NC1CCCCC1)c1ccccc1-n1ncc(Cl)c(Cl)c1=O`, the IC90 stood at 3.79 µM. Also, where the note is “FFLUC_HILL_SLOPE 2.05, FFLUC_R_SQUARED 0.721, HEPG2TOX_HILL_SLOPE 15.4, HEPG2TOX_R_SQUARED 0.582, PBLUC_HILL_SLOPE 17.3, PBLUC_R_SQUARED 0.758, read-out: LUCIFERASE INFECTION ASSAY - IC50”, the pIC50 was 5.48.
Turning to `Cc1ccc(OCCOC(=O)c2cc(=O)[nH]c3ccccc23)cc1`, the IC90 was greater than 10 µM. Under “FFLUC_HILL_SLOPE 2.13, FFLUC_R_SQUARED 0.116, read-out: LUCIFERASE INFECTION ASSAY - IC50”, the pIC50 is less than 5.00.
As to `CN(C)c1ccc(/C=C(\C#N)C(=O)c2ccc(-n3nncc3C34CC5CC(CC(C5)C3)C4)cc2)cc1`, the IC90 is greater than 10 µM. For the same compound, the pIC50 (FFLUC_HILL_SLOPE 2.12, FFLUC_R_SQUARED 0.418, PBLUC_HILL_SLOPE 11.3, PBLUC_R_SQUARED 0.267, read-out: LUCIFERASE INFECTION ASSAY - IC50) was less than 5.00.
For `Nc1c(C(=O)c2ccc(Cl)cc2)sc(NCc2ccco2)c1C(=O)Nc1cc(Cl)ccc1Cl`, the IC90 amounted to 4.4 µM. For the same compound, the pIC50 (FFLUC_HILL_SLOPE 2.13, FFLUC_R_SQUARED 0.528, HEPG2TOX_HILL_SLOPE 16.1, HEPG2TOX_R_SQUARED 0.784, PBLUC_HILL_SLOPE 2.08, PBLUC_R_SQUARED 0.686, read-out: LUCIFERASE INFECTION ASSAY - IC50) was 5.82.
For `O=C1C=CC(=O)N1c1ccc(F)c(Cl)c1`, the IC90 is greater than 14.6 µM. The pIC50 (FFLUC_HILL_SLOPE 2.09, FFLUC_R_SQUARED 0.475, HEPG2TOX_HILL_SLOPE 6.94, HEPG2TOX_R_SQUARED 0.217, PBLUC_HILL_SLOPE 8.9, PBLUC_R_SQUARED 0.496, read-out: LUCIFERASE INFECTION ASSAY - IC50) is 4.87.

The record behind these values is ChEMBL document CHEMBL4483862, “Open-source discovery of chemical leads for next-generation chemoprotective antimalarials” (2018).
